According to publication PMC7377239, “Cardiovascular Effects of Polychlorinated Biphenyls and Their Major Metabolites” (Environmental Health Perspectives, 2020):
Structures can show the parent of a compound that is named as a salt. Where two headings read alike, the source gives them in different places.

Test system: iCell cardiomyocytes (human iPSC-derived cardiomyocytes)
Test: High-content imaging of cytotoxicity and mitochondrial integrity in iPSC-CMs
Type: cell-based
Details: Homo sapiens; for viability at 0.01 µM / activity at 0.01 µM / viability at 0.1 µM / activity at 0.1 µM / viability at 1 µM / activity at 1 µM / viability at 10 µM / activity at 10 µM / viability at 100 µM / activity at 100 µM: 0.00 µM = 100.00; for viability at 0.1 µM / activity at 0.1 µM: 0.10 µM
Method in brief: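 Readouts from high-content images were normalized to vehicle controls containing 0.5% vol/vol DMSO. They were fit to a four-parameter logistic model in R. Points of departure were set using a cutoff of one standard deviation across vehicle control means. Where no concentration–response was seen, the top tested concentration of 100μM was assigned as the no observable adverse effect level.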

[1] = Cardiomyocyte, 1.5 h, read-out: cm.cam.90min
[2] = Cardiomyocyte, 1.5 h, read-out: cm.mii.90min
[3] = Cardiomyocyte, 1.5 h, read-out: cm.mito.90min
[4] = Cardiomyocyte, 1.5 h, read-out: cm.tc.90min
[5] = Cardiomyocyte, 24 h, read-out: cm.cam.24hrs
[6] = Cardiomyocyte, 24 h, read-out: cm.mii.24hrs
[7] = Cardiomyocyte, 24 h, read-out: cm.mito.24hrs
[8] = Cardiomyocyte, 24 h, read-out: cm.tc.24hrs
[9] = iPSC-CM, 1.5 h, iPSC-CM, read-out: cm.cam.90min POD
[10] = iPSC-CM, 1.5 h, iPSC-CM, read-out: cm.mii.90min POD
[11] = iPSC-CM, 1.5 h, iPSC-CM, read-out: cm.mito.90min POD
[12] = iPSC-CM, 1.5 h, iPSC-CM, read-out: cm.tc.90min POD
[13] = iPSC-CM, 24 h, iPSC-CM, read-out: cm.cam.24hrs POD
[14] = iPSC-CM, 24 h, iPSC-CM, read-out: cm.mii.24hrs POD
[15] = iPSC-CM, 24 h, iPSC-CM, read-out: cm.mito.24hrs POD
[16] = iPSC-CM, 24 h, iPSC-CM, read-out: cm.tc.24hrs POD
[17] = Cardiomyocyte, 1.5 h, cardiomyocytes (cm), cam, 90 min, read-out: POD cm.cam.90min
[18] = Cardiomyocyte, 1.5 h, cardiomyocytes (cm), mii, 90 min, read-out: POD cm.mii.90min
[19] = Cardiomyocyte, 1.5 h, cardiomyocytes (cm), mito, 90 min, read-out: POD cm.mito.90min
[20] = Cardiomyocyte, 1.5 h, cardiomyocytes (cm), tc, 90 min, read-out: POD cm.tc.90min
[21] = Cardiomyocyte, 24 h, cardiomyocytes (cm), cam, 24 hrs, read-out: POD cm.cam.24hrs
[22] = Cardiomyocyte, 24 h, cardiomyocytes (cm), mii, 24 hrs, read-out: POD cm.mii.24hrs
[23] = Cardiomyocyte, 24 h, cardiomyocytes (cm), mito, 24 hrs, read-out: POD cm.mito.24hrs
[24] = Cardiomyocyte, 24 h, cardiomyocytes (cm), tc, 24 hrs, read-out: POD cm.tc.24hrs

SMILES: Clc1ccc(-c2ccccc2)cc1 [PCB3]
- viability at 0.01 µM [1]: 104%
- activity at 0.01 µM [2]: 107%
- activity at 0.01 µM [3]: 104%
- viability at 0.01 µM [4]: 104%
- viability at 0.1 µM [1]: 97.8%
- activity at 0.1 µM [2]: 103%
- activity at 0.1 µM [3]: 97.7%
- viability at 0.1 µM [4]: 97.7%
- viability at 1 µM [1]: 98.5%
- activity at 1 µM [2]: 104%
- activity at 1 µM [3]: 98.3%
- viability at 1 µM [4]: 98.2%
- viability at 10 µM [1]: 99.9%
- activity at 10 µM [2]: 109%
- activity at 10 µM [3]: 99.6%
- viability at 10 µM [4]: 99.5%
- viability at 100 µM [1]: 40.3%
- activity at 100 µM [2]: 141%
- activity at 100 µM [3]: 39.3%
- viability at 100 µM [4]: 40.4%
- viability at 0.01 µM [5]: 87.6%
- activity at 0.01 µM [6]: 109%
- activity at 0.01 µM [7]: 84.7%
- viability at 0.01 µM [8]: 87.2%
- viability at 0.1 µM [5]: 96%
- activity at 0.1 µM [6]: 101%
- activity at 0.1 µM [7]: 93.1%
- viability at 0.1 µM [8]: 95.9%
- viability at 1 µM [5]: 95.4%
- activity at 1 µM [6]: 97.1%
- activity at 1 µM [7]: 91%
- viability at 1 µM [8]: 95.3%
- viability at 10 µM [5]: 91.4%
- activity at 10 µM [6]: 87.2%
- activity at 10 µM [7]: 87.8%
- viability at 10 µM [8]: 90.8%
- viability at 100 µM [5]: 1.51%
- activity at 100 µM [6]: 32%
- activity at 100 µM [7]: 0.72%
- viability at 100 µM [8]: 1.49%
- minimal effective concentration [9]: 24.9 µM
- minimal effective concentration [10]: 6.86 µM
- minimal effective concentration [11]: 21.2 µM
- minimal effective concentration [12]: 20 µM
- minimal effective concentration [13]: 7.4 µM
- minimal effective concentration [14]: 10.9 µM
- minimal effective concentration [15]: 6.67 µM
- minimal effective concentration [16]: 6.97 µM

SMILES: O=S(=O)(O)Oc1ccc(-c2ccc(Cl)cc2)cc1 [4'-PCB 3 sulfate]
- minimal effective concentration [17]: 100 µM
- minimal effective concentration [18]: 100 µM
- minimal effective concentration [19]: 100 µM
- minimal effective concentration [20]: 100 µM
- minimal effective concentration [21]: 100 µM
- minimal effective concentration [22]: 53.5 µM
- minimal effective concentration [23]: 100 µM
- minimal effective concentration [24]: 100 µM

SMILES: Clc1ccc(Cl)c(-c2c(Cl)ccc(Cl)c2Cl)c1 [PCB 95, 2,2′,3,5′,6-pentachlorobiphenyl]
- minimal effective concentration [17]: 36.6 µM
- minimal effective concentration [18]: 100 µM
- minimal effective concentration [19]: 39.6 µM
- minimal effective concentration [20]: 38.7 µM
- minimal effective concentration [21]: 8.98 µM
- minimal effective concentration [22]: 22.2 µM
- minimal effective concentration [23]: 8.96 µM
- minimal effective concentration [24]: 8.75 µM

SMILES: Oc1cccc(-c2ccc(Cl)cc2)c1 [3'-OH PCB3]
- viability at 0.01 µM [1]: 101%
- activity at 0.01 µM [2]: 109%
- activity at 0.01 µM [3]: 101%
- viability at 0.01 µM [4]: 101%
- viability at 0.1 µM [1]: 96.5%
- activity at 0.1 µM [2]: 107%
- activity at 0.1 µM [3]: 96.4%
- viability at 0.1 µM [4]: 96.6%
- viability at 1 µM [1]: 103%
- activity at 1 µM [2]: 98.4%
- activity at 1 µM [3]: 103%
- viability at 1 µM [4]: 103%
- viability at 10 µM [1]: 99.4%
- activity at 10 µM [2]: 106%
- activity at 10 µM [3]: 99.2%
- viability at 10 µM [4]: 99.2%
- viability at 100 µM [1]: 0%
- activity at 100 µM [2]: 0%
- activity at 100 µM [3]: 0%
- viability at 100 µM [4]: 0%
- viability at 0.01 µM [5]: 91.7%
- activity at 0.01 µM [6]: 99.6%
- activity at 0.01 µM [7]: 88.3%
- viability at 0.01 µM [8]: 91.6%
- viability at 0.1 µM [5]: 99.1%
- activity at 0.1 µM [6]: 109%
- activity at 0.1 µM [7]: 97.5%
- viability at 0.1 µM [8]: 98.9%
- viability at 1 µM [5]: 104%
- activity at 1 µM [6]: 92.4%
- activity at 1 µM [7]: 101%
- viability at 1 µM [8]: 104%
- viability at 10 µM [5]: 98%
- activity at 10 µM [6]: 98.8%
- activity at 10 µM [7]: 97.5%
- viability at 10 µM [8]: 98.6%
- viability at 100 µM [5]: 0.0471%
- activity at 100 µM [6]: 0%
- activity at 100 µM [7]: 0%
- viability at 100 µM [8]: 0.09%
- minimal effective concentration [9]: 16 µM
- minimal effective concentration [10]: 35 µM
- minimal effective concentration [11]: 15 µM
- minimal effective concentration [12]: 14.8 µM
- minimal effective concentration [13]: 14.1 µM
- minimal effective concentration [14]: 23 µM
- minimal effective concentration [15]: 14 µM
- minimal effective concentration [16]: 15.6 µM
